Experimental data from patent publication US20050148673A1, “Prolonged administration of NMDA antagonist and safener drug to alter neuropathic pain condition” (priority 2002, published 2005).

Experiments:
[1] = tested on: patients with CRPS-Type 1 (RSD) neuropathic pain; experiment: Prolonged continuous intravenous ketamine infusion with clonidine and MgSO4 in U.S. patients with CRPS-Type 1 (RSD); assay type: in vivo, human
Description: Roughly 2 hours before ketamine infusion begins, the patient should be given an oral dose of a “safener drug” that can reduce or eliminate the risks of any neurotoxic side effects that might otherwise be caused by continuous prolonged administration of the ketamine. […] As an additional benefit, clonidine (and various other alpha-2 adrenergic agonist drugs) can also help reduce blood pressure. This is useful, when used in conjunction with ketamine, since elevated blood pressure can be a side effect of ketamine, due to certain activities involving the sympathetic nervous system and the release of catecholamines.
In the treatments disclosed herein, clonidine tablets containing 0.1 or 0.2 mg were administered orally, every 8 to 12 hours, with good results. […] The transdermal form of clonidine (i.e., using skin patches) has also been used, with good results.
Beginning roughly 2 hours before the ketamine infusion is commenced (this can be done conveniently at the same time when the first clonidine tablet is taken), the patient should also be administered magnesium, preferably by intravenous infusion of a water-soluble salt, such as magnesium sulfate or chloride. This can be done by dissolving 2 grams of MgSO4 in 250 milliliters of 5% dextrose in water (abbreviated as D5W) and infusing the liquid into the patient over a period of about 2 hours.
A second infusion of 2 grams of MgSO4 should be administered roughly 24 hours later. This can be repeated each day, if desired, if the patient has not yet achieved complete cessation of the chronic pain; however, in the treatments completed to date, it has never been provided more than 3 times.
As soon as the initial magnesium infusion (which takes about 2 hours) has been completed, the patient is ready for the ketamine infusion to begin. In the treatments described herein, since these were done without being able to rapidly determine ketamine concentrations in blood, each patient was individually “titered”, by testing a series of gradually increasing dosages until a “maximum tolerated dosage” was reached and determined.
This typically was done by starting each patient at an initial dosage of 10 mg per hour, and then evaluating the patient every 2 hours after that, to see whether the dosage should be increased by another 5 or 10 mg/hr. When a patient began showing or reporting substantial CNS effects (such as feeling drunk, slurring of speech, semi-hallucinatory thoughts or visions, etc.), it was presumed that the maximum tolerated dosage had been reached or slightly passed, and the dosage was decreased slightly (such as by 5 or 10 mg/hr, depending on how well the reported pain levels were decreasing).
Four other patients who had suffering from CRPS type 1 for at least two years were subsequently treated in the U.S. Because of patient privacy concerns, the details of their condition cannot be disclosed herein. Typical treatments for these patients commenced with 2 grams of MgSO4 (infused in 5% dextrose in water, or D5W) and 1 or 2 tablets of 0.1 mg clonidine, two or three times per day as tolerated, commencing at least an hour prior to the first ketamine infusion. Throughout the treatment, patients continued to receive 1 or 2 tablets of clonidine 2 to 3 times per day, as tolerated, and a second magnesium infusion was performed in some patients at 24 hr.

[2] = tested on: patients with chronic neuropathic pain; experiment: Prolonged infusions of ketamine without any safener drug or magnesium, patients treated in Australia; assay type: in vivo, human
Excerpt: About 30 patients have been treated during the span of 1997 through 2002, in Australia, by one of the Inventors herein (Correll), using prolonged infusions of ketamine without any safener drug or magnesium. […] Those patients have been described in more detail in Correll et al 2004, and more current information on the duration of remission are provided in FIGS. 1 and 2 of that report. That report is not prior art against this invention.

[3] = tested on: patients with post-herpetic neuralgia (shingles); experiment: Ketamine treatment of patients with post-herpetic neuralgia (shingles); assay type: in vivo, human
Description: Several patients were also treated who suffered from post-herpetic neuralgia (commonly known as shingles).

[4] = Ketamine and norketamine concentrations in blood plasma during infusion; assay type: in vivo, human
Description: Blood samples were taken from each patient during his or her infusion regimen, and those samples were shipped to an analytical laboratory (National Medical Services Company, in Willow Grove, Pa.) to have their ketamine concentrations analyzed. […] In view of those data, it is believed that blood plasma concentrations of at least about 200 ng/ml (and preferably at least about 250 to about 350 ng/ml) should be regarded as target levels for effective treatments.

[5] = tested on: patients with post-herpetic neuralgia; details: cited from earlier work; for patients in whom side effects were observed: single intravenous injection, of 8 patients (ketamine 0.15 mg/kg, morphine 0.075 mg/kg), Eide et al 1994
NMDA receptors = details: cited from earlier work

SMILES	reported pain level ([1]; FIG. 1 patient, baseline 8, after 24 hours of ketamine infusion (plateau))	duration of apparently complete relief ([1]; FIG. 1 patient, one of four further CRPS type 1 patients)	reported pain level ([1]; FIG. 1 patient, within about 3 hours after second MgSO4 infusion commencing at 24 hours, ketamine continued)	duration of apparently complete remission ([1]; first patient treated in the U.S.)	pain relief outcome ([1]; one of four further CRPS type 1 patients, appears permanent as of filing date)	level to which pain returned, relative to pretreatment level ([1]; one of two patients with low ketamine plasma concentrations)	level to which pain returned ([1]; other of two patients with low ketamine plasma concentrations)	overall result ([2]; ketamine alone, about 30 patients)	patients believed to remain generally pain-free or in partial remission ([2]; of about 30 patients treated 1997 through 2002, ketamine alone)	outcome in certain other patients [3]	outcome in one patient [3]	blood plasma concentration of ketamine in the two patients without complete and long-lasting relief ([4]; did not reach or even closely approach this level)	blood plasma concentration of ketamine that appeared to provide the best results ([4]; plasma, during infusion)	patients in whom side effects were observed [5]	tolerability ([5]; subcutaneous administration over a continuous span of 7 days, 5 patients, Eide et al 1995)	level of norketamine in blood ([4]; one patient with return of pain)	effectiveness relative to ketamine in reducing pain signals (NMDA receptors)	effectiveness relative to ketamine in suppressing activity at NMDA receptors (NMDA receptors)
CNC1(c2ccccc2Cl)CCCCC1=O (racemic) [ketamine]	about 1.3	roughly six	zero	about 18 months	apparently complete relief	roughly 50%	roughly the same starting level that existed prior to treatment	generally good results	more than 25 patients	transitory and partial benefits	essentially complete remission	< 300 ng/mL	greater than 250 ng/ml	8 patients	associated with intolerable side effects			
CN1CC[C@]23c4c5ccc(O)c4O[C@H]2[C@@H](O)C=C[C@H]3[C@H]1C5 [morphine]														6 patients				
NC1(c2ccccc2Cl)CCCCC1=O (stereo not shown) [norketamine]																high level	about 25%	about 25%
